Test results taken from US5672707A (priority 1991, dated 1997).
Entries after “also recorded” stand apart in the source; their conditions may differ. Where two headings read alike, the source gives them in different places.

How the values were obtained:
in vivo = conditions: intraperitoneal injection, Table 5; for LD50: in vivo, ip, read-out: LD50 (mg/kg) by Kerber
Method: (§1) Psychoneurotropic activity of the declared compounds and their influence on learning and memory were observed using unbred male (18-20 g) mice and 180-200 g) rats, held at standard conditions (room temperature 21°-22° C., 12-hours lighting schedule, food and water ad libitum).
Acute toxicity was studied by the method of Kerber with intra peritoneal drug injection.

[1] = molecular target: T1, Acetylcholinesterase, enzyme from human erythrocytes (Homo sapiens, UniProt P22303); assay: Acetylcholinesterase inhibition, spectrophotometric technique of Ellman; assay type: biochemical; conditions: for IC50: Acetylcholinesterase inhibition IC50 (M); for IC50 / Acetylcholinesterase inhibition IC50 (M): enzyme from human erythrocytes, Table 5
T1 construct: on the enzyme from human erythrocytes; from tissue; host or cells: human erythrocytes
T1 sequence (P22303-2 with tags, fused parts or gaps limits assumed): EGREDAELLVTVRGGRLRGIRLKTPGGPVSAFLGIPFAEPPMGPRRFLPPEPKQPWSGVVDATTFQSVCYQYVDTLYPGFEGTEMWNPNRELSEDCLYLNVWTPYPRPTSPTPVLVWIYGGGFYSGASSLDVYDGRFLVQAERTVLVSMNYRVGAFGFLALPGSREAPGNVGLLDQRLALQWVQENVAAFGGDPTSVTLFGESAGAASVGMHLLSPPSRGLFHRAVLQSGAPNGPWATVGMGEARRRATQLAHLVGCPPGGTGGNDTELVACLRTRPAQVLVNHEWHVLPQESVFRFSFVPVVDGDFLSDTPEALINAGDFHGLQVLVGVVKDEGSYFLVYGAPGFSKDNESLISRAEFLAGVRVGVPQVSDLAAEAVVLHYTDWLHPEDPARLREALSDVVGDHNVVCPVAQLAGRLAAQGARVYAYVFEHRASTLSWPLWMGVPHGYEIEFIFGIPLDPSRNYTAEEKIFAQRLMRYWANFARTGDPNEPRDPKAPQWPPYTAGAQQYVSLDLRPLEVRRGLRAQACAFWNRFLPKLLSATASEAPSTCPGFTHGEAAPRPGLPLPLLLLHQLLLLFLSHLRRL
Method: Acetylcholinesterase inhibition under the action of preparations was assessed by the spectrophotometric technique of Ellman on the enzyme from human erythrocytes.

mice [2] = assay: Psychotropic activity test: motor activity; assay type: in vivo; conditions: intraperitoneally, dose 1/20 of LD
mice [3] = assay: Psychotropic activity test: arecoline induced hyperkynesis; assay type: in vivo; conditions: intraperitoneally, dose 1/20 of LD
rats [4] = assay: Passive avoidance test in normal rats, 50% acquisition; assay type: in vivo; conditions: for change in vivo at 0.1 mg/kg: Rattus norvegicus, 20 min, read-out: Increase of the number of correct trails (% to control). Passive avoidance test (rats)
Method: as §1
(§2) The influence of drugs on reflex conditioning in rats was studied by the passive avoidance test in conditions of 50% acquisition. The effect of the compound was estimated by the increase of the relative number of learned animals with respect to that of control group. […] The other reference drug--noothropic agent piracetam--was given in the dose 250 mg/kg 60 min before training. Amnestic syndrome was stimulated by 20 days application of Sc at the daily dose of 1 mg/kg intraperitoneally. […] The passive avoidance test was performed within 24 hours after the last application of test preparations.

mice [5] = assay: Step-down test, scopolamine induced amnesia; assay type: in vivo
Method: as §1

K channels = assay: Ionic permeabilities of excitable membranes, voltage clamp in the Ranvier node; assay type: cell-based, frog; conditions: for Block of K-channels IC (M): Ranvier node of the frog, voltage clamp
rat adipocytes [6] = assay: Lipid composition of adipocytes after incubation with compounds; assay type: cell-based; conditions: for FFA/TG in adipocytes / PL/CL in adipocytes / PL/TG in adipocytes: cells, Table 11; for FFAc/FFAm / PLc/PLm: distribution between cells and incubation medium, Table 13
Method: (§3) Lipid regulative activity of the declared compounds--derivatives of 9-amino acridine--were evaluated in vitro[…] using rat adipocytes. Adipocytes were separated from adipose tissue of testis appendages of adult male rats. Lipid composition analysis was performed by the method of thin-layer chromatography.
(§4) Quantitative analysis of phospholipids (PL), mono- and diacylglycerides (MDG), triacylglycerides (TG), free fatty acids (FFA), free cholesterol (FCL), and methyl esters of fatty acids (MEFA) was performed by the method of spectrophotometry.

rat adipocytes [7] = assay: Lipid content in incubation medium after incubation of adipocytes; assay type: cell-based; conditions: incubation medium; Table 12
Method: as §3, §4

rats [8] = assay: Passive avoidance test on the model of amnestic syndrome (multiple scopolamine injection); assay type: in vivo; conditions: rats; scopolamine 1 mg/kg 20 days, then drug 10 days (1 mg/kg; piracetam 250 mg/kg)
Method: The influence of drugs on reflex conditioning in rats was studied by the passive avoidance test in conditions of 50% acquisition. The effect of the compound was estimated by the increase of the relative number of learned animals with respect to that of control group. […] The passive avoidance test was performed within 24 hours after the last application of test preparations.

old rats = assay: Passive avoidance test in old rats; assay type: in vivo; conditions: old rats (18 month), 20 days application, 1 mg/kg (piracetam 250 mg/kg)
Method: as §2
Improvement of animal performance was accompanied by the normalizing of brain synaptosomes microviscosity under the action of all the substances tested. […] The latter observation indicates to the possible interference of amiridine and substance Vo into the processes of atherogenesis in old animals.

[9] = ip, rats, 0.1 mg/kg i.p. 20 min before training, piracetam 250 mg/kg 60 min before training
[10] = rats, 0.1 mg/kg i.p. 20 min before training, piracetam 250 mg/kg 60 min before training

SMILES | LD50 (in vivo) | IC50 [1] | Motor activity increment (% to control) (mice [2]) | Increase of duration of arecoline induced hyperkynesis (% to control) (mice [3]) | change in vivo at 0.1 mg/kg (rats [4]; [9]) | Antiamnestic activity in Step-down test (% of mice with latency > cut off) (mice [5]) | The shift of activation region of K channels: substance lowest concentrations in M producing measureable shift of 1-2 mV (K channels) | Performance of normal rats in passive avoidance test (rats [4]; normal rats) | FFA/TG in adipocytes (rat adipocytes [6]) | PL/CL in adipocytes (rat adipocytes [6]) | PL/TG in adipocytes (rat adipocytes [6]) | FFAc/FFAm (rat adipocytes [6]) | PLc/PLm (rat adipocytes [6]) | FFA/TG in incubation medium (rat adipocytes [7]) | PL/CL in incubation medium (rat adipocytes [7]) | PL/TG in incubation medium (rat adipocytes [7]) | LD50 (mg/kg) by Kerber (in vivo) | Increase of the number of correct trails (% to control). Passive avoidance test (rats) (rats [4]; [10]) | other results
CC1(C)CC(=O)c2c(nc3ccccc3c2NCc2ccc(Cl)cc2)C1 [Vf] | > 1000 mg/kg | 8e-05 M | 13 % to control | 0 % to control | 0% | 0 % of mice | no effect | – | – | – | – | – | – | – | – | – | – | – | –
CC1(C)C=Cc2c(nc3ccccc3c2NCc2ccc(Cl)cc2)C1 [VIId] | 126 ± 8.9 mg/kg | 6e-09 M | 28 % to control | 15 % to control | 60% | 20 % of mice | – | statistically significantly improved performance of normal rats | 1.16 | 0.69 | 0.73 | 1.07 | 0.97 | 0.96 | 0.75 | 0.67 | – | – | Improving learning and memory compared with amiridine and piracetam (rats [4]; normal rats, passive avoidance test): as effective in improving learning and memory as amiridine and piracetam; Change of lipid composition in adipocytes (rat adipocytes [6]): significaut lipolytic effect; also recorded: significant lipolytic effect; Lipid-regulative effect compared with probucol (rat adipocytes [6]): not inferior; Potency of effect on lipid composition of adipocytes (rat adipocytes [6]): most potent effect on lipid composition of adipocytes
CN1[C@@H]2C[C@@H](OC(=O)[C@H](CO)c3ccccc3)C[C@H]1[C@@H]1O[C@@H]12 [Scopolamine (Sc), scopolamine] | – | – | – | – | – | – | – | – | – | – | – | – | – | – | – | – | – | – | Passive avoidance latency (rats [8]): 70.4 ± 10.5 s
Cc1ccc(CNc2c3c(nc4ccccc24)CC(C)(C)CC3O)c(C)c1 (stereo not drawn) [VIj] | – | 2.5e-06 M | 55 % to control | 13 % to control | – | 0 % of mice | no effect | statistically significantly improved performance of normal rats | 1.08 | 0.80 | 0.85 | 0.95 | 1.24 | 1.03 | 0.65 | 0.62 | 33.4 ± 3.2 mg/kg | 40 % to control | –
CC1(C)C=Cc2c(nc3ccccc3c2N)C1 [VIIb] | 37.5 ± 0.9 mg/kg | 7.5e-08 M | 41 % to control | 25 % to control | 40% | 25 % of mice | – | statistically significantly improved performance of normal rats | – | – | – | – | – | – | – | – | – | – | Antiamnestic activity in Step-down test (mice [5]): pronounced antiatonestic activity, comparable with that of amiridine and tacrine; Block of K-channels IC (M) (K channels): no effect
NC(=O)CN1CCCC1=O [Piracetam, piracetam, reference compound] | 1000 mg/kg | – | 0 % to control | 0 % to control | – | – | – | – | – | – | – | – | – | – | – | – | – | – | Acetylcholinesterase inhibition IC50 (M) [1]: no effect; change in vivo at 0.1 mg/kg (rats [4]): 63%; Passive avoidance latency (rats [8]): 162.3 ± 13.3 s; Passive avoidance latency in 7 days after training (old rats): 120.0 ± 24.3 s
CC1(C)CC(=O)c2c(nc3ccccc3c2N)C1 [IVb] | 70 ± 4.3 mg/kg | 3.5e-06 M | 0 % to control | 33 % to control | 30% | 0 % of mice | no effect | – | – | – | – | – | – | – | – | – | – | – | Block of K-channels IC (M) (K channels): no effect
CCCCNc1c2c(nc3ccccc13)CC(C)(C)CC2=O [Vaa] | – | – | 26 % to control | 25 % to control | – | 25 % of mice | – | – | 0.94 | 0.63 | 0.58 | 1.01 | 1.04 | 0.92 | 0.71 | 0.55 | 650.0 ± 11.3 mg/kg | 15 % to control | Antiamnestic activity in Step-down test (mice [5]): pronounced antiatonestic activity, comparable with that of amiridine and tacrine
Cc1ccc(CNc2c3c(nc4ccccc24)CC(C)(C)CC3O)c(C)c1 (stereo not drawn) [VIi] | – | 1e-06 M | 13 % to control | 46 % to control | – | 0 % of mice | no effect | – | – | – | – | – | – | – | – | – | 75.0 ± 1.2 mg/kg | 15 % to control | –
CC1(C)CC(=O)c2c(nc3ccccc3c2NCc2ccccc2)C1 [Vb] | 735 ± 21.8 mg/kg | – | 80 % to control | 15 % to control | 25% | 0 % of mice | no effect | – | – | – | – | – | – | – | – | – | – | – | AChE inhibition IC (M) ([1]; Table 6): no effect; Acetylcholinesterase inhibition IC50 (M) [1]: no effect
